The target in experiment [1] is T1, SOCE (ICRAC) reconstituted by STIM1 and Orail (CRACM1) (Homo sapiens, UniProt Q96D31).
T1 construct: expressed in transfected cells; host or cells: HEK293 cells
Briefly: ICRAC whole cell patch clamp in HEK293 cells forcibly expressing STIM1 and Orail (CRACM1). It counts as cell-based. The following applies: inward current at −80 mV. The text has this:
FIG. 2 is a drawing showing an Icrac inhibitory effect of 163AE, and the vertical axis and the horizontal axis show the same as in FIG. 1.
The effects of 162AE (bis(3,3′-(phenylaminoethoxyboryl)benzyl)ether described in Example 8) and 163AE (bis(4,4′-(phenylaminoethoxyboryl)benzyl)ether described in Example 131) for ICRAC, whose molecular entity as one of SOCE has been clarified, were investigated using an electrophysiological method. STIM1 and Orail (CRACM1) were forcibly expressed in HEK293 cells, and whole cell records were taken by the Patch clamp technique. BAPTA (20 mM), which is a calcium chelator, and IP3 (20 μM) that depletes intracellular calcium store were added to a recording electrode internal solution (120 mM Cs-glutamate, 10 mM HEPES, 3 mM MgCl2), 10 mM calcium was added to an extracellular solution to facilitate observation of calcium electric current, and a ramp command from −150 mV to +150 mV was input at 0.5 Hz to obtain a current-voltage curve. For quantification of SOCE, the size of the inward current at −80 mV was used as an index. After the start of the whole cell recording, time was taken to sufficiently activate SOCE (ICRAC), and compounds 162AE and 163AE as inhibitors were administered to the cells. […]
Background: In patch-clamp work, channel activity is measured electrically.

Experiment [2] deals with SOC (store operated calcium channel). Briefly: Measurement of SOC IC50 (thapsigargin store depletion, calcium re-addition, CHO cells). Type of experiment: cell-based. The following applies: read-out: SOC IC50. As to the method:
The SOC (store operated calcium channel)-suppressive action can be measured by the method described in the Example and using, for example, FDSS 3000.
CHO cell culture medium was replaced with a BSS solution which is an extracellular fluidfree of calcium, the compound of the present invention was added 1 min later, and 1 μM thapsigargin was allowed to act thereon 2 min later to deplete intracellular calcium store. […]

Experiment [3] relates to Truncated N-terminal huntington 150 Q-EGFP-Neuron 2a cells. The experiment can be described thus: Measurement of x-Fold (polyglutamine aggregation inhibitory activity). Type of experiment: cell-based. As to the method: In the present invention, the polyglutamine aggregation inhibitory activity (x-Fold) can be measured, for example, by the method described in the Example.
The number of the aggregated cells, and the total number of cells were counted by Array Scan V T1 (manufactured by Cellomics, Pittuburg, USA), and the ratio of the aggregated cells to the total number of cells was determined (x-Fold). […]

The test system of experiment [4] is transglutaminase (TGase). Briefly: Measurement of TG (TGase inhibitory activity, monodansyl cadaverine / N,N-dimethylcasein fluorescence, FDSS 3000). Type of experiment: biochemical. Put shortly: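 Compound (1 μL of 10 mM stock) added to 0.1 mL reaction: 100 mM HEPES-NaOH pH 7.5, 1 mM CaCl2, 20 μM monodansyl cadaverine, 0.05 mg/mL N,N-dimethylcasein, 5 μg/mL TGase. Rate of fluorescence change at 340 nm measured; DMSO control set to 100; TG50 is the concentration halving activity.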

[5] abbreviates: CHO cells, 1 μM thapsigargin, 2 mM calcium chloride.
The mark [6] stands for this setting: polyglutamine aggregation inhibitory activity, Table 1.
[7] abbreviates: ratio of aggregated cells to total number of cells, compound 20 μM, 20 hr, almost 1 without compound, smaller = stronger inhibition.
Where [8] appears, read: TGase activity with compound (10 mM, 1 μL in 0.1 ml enzyme reaction solution), DMSO control taken as 100.
Where [9] appears, read: TGase inhibitory activity value, Table 1.
Setting [10] is: Cricetulus griseus, CHO, CHO cells, 1 μM thapsigargin, 2 mM calcium chloride.
[11] abbreviates: polyglutamine aggregation, Truncated N-terminal huntington 150 Q-EGFP-Neuron 2a cells.
The mark [12] stands for this setting: TGase inhibitory activity measurement, unit not given.

Read-outs that look alike come from different tables or passages of the source.

T1 sequence (Q96D31 whole entry): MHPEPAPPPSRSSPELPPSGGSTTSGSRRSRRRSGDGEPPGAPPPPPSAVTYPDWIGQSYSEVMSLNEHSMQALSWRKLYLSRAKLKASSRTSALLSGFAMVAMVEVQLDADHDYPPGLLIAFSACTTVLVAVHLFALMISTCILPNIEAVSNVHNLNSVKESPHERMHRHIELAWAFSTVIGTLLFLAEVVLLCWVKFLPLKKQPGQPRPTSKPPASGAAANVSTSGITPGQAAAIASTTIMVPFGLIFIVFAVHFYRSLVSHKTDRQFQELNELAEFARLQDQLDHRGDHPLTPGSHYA

As usually defined, the IC50 is the concentration at which inhibition is half-maximal. Take `NCCOB(c1ccccc1)c1cccc(COCc2cccc(B(OCCN)c3ccccc3)c2)c1` [Example 8, bis(3,3′-(phenylaminoethoxyboryl)benzyl)ether]: the figures for the IC50 in experiment [1] and in experiment [2] (setting [5]) were 86 nM and 200 nM, respectively. Besides, the x-Fold in experiment [3] (setting [6]) and in experiment [3] (setting [7]) was 1.1 in each case. Moreover, the “TGase activity remaining (% of DMSO control = 100)” value in experiment [4] (setting [8]) and in experiment [4] (setting [9]) was 24 each time.

With `NCCOB(c1ccccc1)c1ccc(COCc2ccc(B(OCCN)c3ccccc3)cc2)cc1` [Example 131, bis((4,4′-phenylaminoethoxyboryl)benzyl)ether], the concentration for half-maximal inhibition (IC50) in experiment [1] came out at 170 nM; in experiment [2] (setting [10]), 300 nM; in experiment [2] (Cricetulus griseus, CHO, Table 1), 300 nM. The x-Fold in experiment [3] (setting [6]) and in experiment [3] (setting [7]) was 1.1 in each case.

Take `NCCCCC(N)C(=O)OB(c1ccccc1)c1cccc(COCc2cccc(B(OC(=O)C(N)CCCCN)c3ccccc3)c2)c1` (centres unmarked) [Example 475, bis(3,3′-(phenyl-lysineboryl)benzyl)ether]: in experiment [2] (setting [5]), the IC50 is 600 nM. In addition, the x-Fold in experiment [3] (setting [11]) and in experiment [3] (setting [7]) was 1.01 throughout. The “TGase activity remaining (% of DMSO control = 100)” value in experiment [4] (setting [8]) and in experiment [4] (setting [12]) was 21 in each case.

As for `NCCCC(N)C(=O)OB(c1ccccc1)c1cccc(COCc2cccc(B(OC(=O)C(N)CCCN)c3ccccc3)c2)c1` (centres unmarked) [Example 476, bis(3,3′-(phenyl-ornithineboryl)benzyl)ether], the concentration for half-maximal inhibition (IC50) in experiment [2] (setting [5]) was found to be 1500 nM. For the same compound, the x-Fold in experiment [3] (setting [11]) and in experiment [3] (setting [7]) was 0.95 in each case. In addition, the “TGase activity remaining (% of DMSO control = 100)” value in experiment [4] (setting [8]) and in experiment [4] (setting [12]) was 103 each time.

Take `NC(COB(c1ccccc1)c1ccc(COCc2ccc(B(OCC(N)Cc3ccccc3)c3ccccc3)cc2)cc1)Cc1ccccc1` (centres unmarked) [Example 479, bis(4,4′-(phenyl-2-benzyl-2-amino-ethoxyboryl)benzyl)ether]: the IC50 in experiment [2] (setting [5]) stood at 1500 nM. Moreover, the x-Fold in experiment [3] (setting [11]) and in experiment [3] (setting [7]) was 1.00 throughout. Also, the “TGase activity remaining (% of DMSO control = 100)” value in experiment [4] (setting [8]) and in experiment [4] (setting [12]) was 54 in each case.

Take `NC(COB(c1ccccc1)c1ccc(Oc2ccc(B(OCC(N)Cc3ccccc3)c3ccccc3)cc2)cc1)Cc1ccccc1` (centres unmarked) [Example 480, bis(4,4′-(phenyl-2-benzyl-2-amino-ethoxyboryl)phenyl)ether]: the IC50 in experiment [2] (setting [5]) worked out at 1500 nM. Also, the x-Fold in experiment [3] (setting [11]) and in experiment [3] (setting [7]) was 0.66 each time. For the same compound, the “TGase activity remaining (% of DMSO control = 100)” value in experiment [4] (setting [8]) and in experiment [4] (setting [12]) was 59 in each case.

Turning to `OB(c1ccccc1)c1ccccc1COCc1ccccc1B(O)c1ccccc1` [Example 486, bis(2,2′-(phenylhydroxyboryl)benzyl)ether], in experiment [2] (setting [5]), the 50% inhibitory concentration (IC50) turned out to be 500 nM. Also, in experiment [3] (setting [7]), the x-Fold is listed as 1.04. In experiment [4] (setting [8]), the “TGase activity remaining (% of DMSO control = 100)” value is 52.

In the case of `NCCOB(c1ccccc1)c1ccccc1` [Example 487, 2-aminoethyl diphenylborinate], the IC50 in experiment [2] (Cricetulus griseus, CHO) stood at 3000 nM. In experiment [3] (setting [7]), the x-Fold was determined as 0.64. Besides, in experiment [4] (setting [8]), the “TGase activity remaining (% of DMSO control = 100)” value amounted to 90.

Regarding `OB(c1ccccc1)c1ccccc1` [Example 488, diphenylborinic acid], the IC50 was found to be 4000 nM in experiment [2] (setting [10]) and 4000 nM in experiment [2] (Cricetulus griseus, CHO, CHO cells, thapsigargin store depletion). In addition, the x-Fold in experiment [3] (setting [6]) is listed as 0.83; in experiment [3] (setting [11]), 1.01; in experiment [3] (setting [7]), 1.01. The “TGase activity remaining (% of DMSO control = 100)” value in experiment [4] (setting [8]) and in experiment [4] (setting [12]) was 108 throughout.

As for “bis(3,3′-(phenyl-2-benzyl-2-amino-ethoxyboryl)benzyl)ether [Example 481]”, in experiment [2] (setting [5]), the IC50 came out at 1500 nM. In addition, the x-Fold in experiment [3] (setting [11]) and in experiment [3] (setting [7]) was 0.80 throughout. Moreover, the “TGase activity remaining (% of DMSO control = 100)” value in experiment [4] (setting [8]) and in experiment [4] (setting [12]) was 48 each time.

“bis(3-chloro-4-methylphenyl 2-pyridylmethoxyborylphenyl)ether [Example 117]”: the IC50 in experiment [2] (setting [5]) was 1500 nM. Moreover, in experiment [3] (setting [7]), the x-Fold came to 0.06. Moreover, the “TGase activity remaining (% of DMSO control = 100)” value in experiment [4] (setting [8]) came to 108.

With “bis(4,4′-(phenylaminoethoxyboryl)phenyl)ether [Example 5]”, the concentration for half-maximal inhibition (IC50) in experiment [2] (setting [5]) was 150 nM. Moreover, the x-Fold in experiment [3] (setting [6]) and in experiment [3] (setting [7]) was 0.60 each time. In addition, the “TGase activity remaining (% of DMSO control = 100)” value in experiment [4] (setting [8]) and in experiment [4] (setting [9]) was −4 throughout.

As for “diphenyl(tyrosinate-O,N)borane [Example 264]”, the concentration for half-maximal inhibition (IC50) in experiment [2] (setting [5]) stood at 5000 nM. For the same compound, the x-Fold in experiment [3] (setting [6]) and in experiment [3] (setting [7]) was 1.00 throughout. The “TGase activity remaining (% of DMSO control = 100)” value in experiment [4] (setting [8]) and in experiment [4] (setting [9]) was 109 throughout.
